Like-named read-outs stand apart in the source and are kept apart here.
Tests used:
[1] = system: IL-2 stimulated pSTAT5 in Tall-1 T cells; assay: Cellular JAK3 potency assay: inhibition of IL-2 stimulated pSTAT5 in Tall-1 T cells; type: cell-based, human; settings: for IC50: Homo sapiens, read-out: Tall-1 (pIC50) (converted)
Description: The potency of test compounds for inhibition of interleukin-2 (IL-2) stimulated STAT5 phosphorylation was measured in the Tall-1 human T cell line (DSMZ) using AlphaLisa. Because IL-2 signals through JAK3, this assay provides a measure of JAK3 cellular potency.
Compounds were serially diluted in DMSO and dispensed acoustically to empty wells. Assay media (phenol red-free DMEM (Life Technologies) supplemented with 10% FBS (ATCC)) was dispensed (4 μL/well) and plates shaken at 900 rpm for 10 mins. Cells were seeded at 45,000 cells/well in assay media (4 μL/well), and incubated at 37° C., 5% CO2 for 1 hour, followed by the addition of IL-2 (R&D Systems; final concentration 300 ng/ml) in pre-warmed assay media (4 μL) for 30 minutes. After cytokine stimulation, cells were lysed with 6 ul of 3× AlphaLisa Lysis Buffer (PerkinElmer) containing 1× PhosStop and Complete tablets (Roche). The lysate was shaken at 900 rpm for 10 minutes at room temperature (RT). Phosphorylated STAT5 was measured via the pSTAT5 AlphaLisa kit (PerkinElmer). Freshly prepared acceptor bead mixture was dispensed onto lysate (5 μL) under green filtered <100 lux light. Plates were shaken at 900 rpm for 2 mins, briefly spun down, and incubated for 2 hrs at RT in the dark. Donor beads were dispensed (5 μL) under green filtered <100 lux light. Plates were shaken at 900 rpm for 2 minutes, briefly spun down, and incubated overnight at RT in the dark.
To determine the inhibitory potency of test compounds in response to IL-2, the average emission intensity of beads bound to pSTAT5 was measured in a human T cell line. IC50 values were determined from analysis of the inhibition curves of signal intensity versus compound concentration. Data are expressed as pIC50 (negative decadic logarithm IC50) values (mean±standard deviation).

JAK3 = biological target: T1, JAK3 (Homo sapiens, UniProt P52333); assay: Biochemical JAK3 kinase assay (LanthaScreen); design: GST; purchased Life Technologies; settings: for Ki: read-out: JAK 3 (pKi) (converted)
T1 sequence (P52333 1-1124): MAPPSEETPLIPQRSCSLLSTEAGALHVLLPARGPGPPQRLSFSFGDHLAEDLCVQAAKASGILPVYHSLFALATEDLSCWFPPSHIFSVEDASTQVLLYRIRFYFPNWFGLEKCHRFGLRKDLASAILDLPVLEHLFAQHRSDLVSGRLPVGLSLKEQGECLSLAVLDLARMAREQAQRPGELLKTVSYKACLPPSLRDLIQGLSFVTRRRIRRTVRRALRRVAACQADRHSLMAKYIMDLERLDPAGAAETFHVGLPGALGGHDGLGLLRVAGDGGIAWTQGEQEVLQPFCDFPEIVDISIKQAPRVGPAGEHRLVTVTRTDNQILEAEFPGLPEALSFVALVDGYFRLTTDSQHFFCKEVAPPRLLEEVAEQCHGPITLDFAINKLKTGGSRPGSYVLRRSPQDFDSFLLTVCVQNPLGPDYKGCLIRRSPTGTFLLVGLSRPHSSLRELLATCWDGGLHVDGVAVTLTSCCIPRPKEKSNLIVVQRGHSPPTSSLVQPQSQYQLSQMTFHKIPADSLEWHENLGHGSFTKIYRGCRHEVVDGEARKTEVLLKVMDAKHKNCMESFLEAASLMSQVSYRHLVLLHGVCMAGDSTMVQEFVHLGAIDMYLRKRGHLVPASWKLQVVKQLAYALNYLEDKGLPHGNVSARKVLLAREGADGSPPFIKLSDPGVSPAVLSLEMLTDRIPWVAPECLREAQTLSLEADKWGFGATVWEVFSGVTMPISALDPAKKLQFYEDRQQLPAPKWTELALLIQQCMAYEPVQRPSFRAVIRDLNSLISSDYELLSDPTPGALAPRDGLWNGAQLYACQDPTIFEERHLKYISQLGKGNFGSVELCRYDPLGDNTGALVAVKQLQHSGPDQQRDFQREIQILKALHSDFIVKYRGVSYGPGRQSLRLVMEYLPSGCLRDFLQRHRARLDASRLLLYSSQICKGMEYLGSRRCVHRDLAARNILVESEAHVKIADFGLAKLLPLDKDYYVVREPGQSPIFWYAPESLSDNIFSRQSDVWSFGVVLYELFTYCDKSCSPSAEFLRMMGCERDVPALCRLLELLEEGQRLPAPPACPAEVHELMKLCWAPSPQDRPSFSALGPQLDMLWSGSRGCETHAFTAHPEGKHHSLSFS
Description: (§1) A panel of four LanthaScreen JAK biochemical assays (JAK1, 2, 3 and Tyk2) were carried in a common kinase reaction buffer (50 mM HEPES, pH 7.5, 0.01% Brij-35, 10 mM MgCl2, and 1 mM EGTA). Recombinant GST-tagged JAK enzymes and a GFP-tagged STAT1 peptide substrate were obtained from Life Technologies.
(§2) Serially or discretely diluted compounds were pre-incubated with each of the four JAK enzymes and the substrate in white 384-well microplates (Corning) at ambient temperature for 1 h. ATP was subsequently added to initiate the kinase reactions in 10 μL total volume, with 1% DMSO. […] Kinase reactions were allowed to proceed for 1 hour at ambient temperature before a 10 μL preparation of EDTA (10 mM final concentration) and Tb-anti-pSTAT1 (pTyr701) antibody (Life Technologies, 2 nM final concentration) in TR-FRET dilution buffer (Life Technologies) was added. The plates were allowed to incubate at ambient temperature for 1 h before being read on the EnVision reader (Perkin Elmer). Emission ratio signals (520 nm/495 nm) were recorded and utilized to calculate the percent inhibition values based on DMSO and background controls.
(§3) For dose-response analysis, percent inhibition data were plotted vs. compound concentrations, and IC50 values were determined from a 4-parameter robust fit model with the Prism software (GraphPad Software). Results were expressed as pIC50 (negative logarithm of IC50) and subsequently converted to pKi (negative logarithm of dissociation constant, Ki) using the Cheng-Prusoff equation.

JAK1 = biological target: T2, JAK1 (Homo sapiens, UniProt P23458); assay: Biochemical JAK1 kinase assay (LanthaScreen); settings: for Ki: read-out: JAK 1 (pKi) (converted)
T2 construct: GST; purchased Life Technologies
Description: as §1, §2, §3

[2] = TALL-1, IL-2 stimulated pSTAT5 in Tall-1 T cells
[3] = selectivity: difference of pKi JAK3 and pKi JAK1
[4] = IL-2 stimulated pSTAT5, Tall-1 T cells
[5] = selectivity JAK3 over JAK1, difference of pKi
[6] = TALL-1, IL-2 stimulated pSTAT5, Tall-1 T cells

T2 sequence (P23458 whole entry): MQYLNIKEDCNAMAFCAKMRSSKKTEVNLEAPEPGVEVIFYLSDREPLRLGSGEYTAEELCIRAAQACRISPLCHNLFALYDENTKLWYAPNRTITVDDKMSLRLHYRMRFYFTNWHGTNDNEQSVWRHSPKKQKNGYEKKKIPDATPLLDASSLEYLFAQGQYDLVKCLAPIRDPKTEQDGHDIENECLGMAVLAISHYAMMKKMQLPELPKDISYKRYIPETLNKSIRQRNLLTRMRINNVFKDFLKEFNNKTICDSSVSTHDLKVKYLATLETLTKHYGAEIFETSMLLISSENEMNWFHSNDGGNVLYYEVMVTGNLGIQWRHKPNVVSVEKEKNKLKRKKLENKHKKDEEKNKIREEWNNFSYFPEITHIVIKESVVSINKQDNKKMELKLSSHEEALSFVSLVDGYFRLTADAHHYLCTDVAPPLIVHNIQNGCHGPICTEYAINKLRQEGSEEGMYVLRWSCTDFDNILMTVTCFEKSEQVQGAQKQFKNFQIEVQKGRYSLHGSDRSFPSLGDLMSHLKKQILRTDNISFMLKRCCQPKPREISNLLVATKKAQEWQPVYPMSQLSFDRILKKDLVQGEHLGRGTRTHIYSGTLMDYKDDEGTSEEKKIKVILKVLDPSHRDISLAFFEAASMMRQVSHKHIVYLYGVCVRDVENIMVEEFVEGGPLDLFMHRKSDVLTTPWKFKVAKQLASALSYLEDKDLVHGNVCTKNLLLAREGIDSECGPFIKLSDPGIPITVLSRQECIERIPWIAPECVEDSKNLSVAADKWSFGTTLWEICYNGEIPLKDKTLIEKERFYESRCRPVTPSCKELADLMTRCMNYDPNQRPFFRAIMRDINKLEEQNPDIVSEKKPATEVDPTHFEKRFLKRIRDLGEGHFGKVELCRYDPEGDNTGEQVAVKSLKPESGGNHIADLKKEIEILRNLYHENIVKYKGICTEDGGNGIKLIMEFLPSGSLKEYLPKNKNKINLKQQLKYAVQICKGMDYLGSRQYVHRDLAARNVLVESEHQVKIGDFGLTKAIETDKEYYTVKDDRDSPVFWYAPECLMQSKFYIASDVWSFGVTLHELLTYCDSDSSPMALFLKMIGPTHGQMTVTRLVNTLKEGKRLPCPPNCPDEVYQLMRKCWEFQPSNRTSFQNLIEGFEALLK

SMILES	IC50 [1, 2] [nM]	Ki (JAK3) [nM]	JAK3 (pKi)-JAK1 (pKi) (JAK3; [3])	Ki (JAK1) [nM]	Tall-1 (pIC50) [1, 4]	JAK 3 (pKi) (JAK3)	JAK3 (pKi)-JAK1 (pKi) (JAK3; [5])	JAK 1 (pKi) (JAK1)	Tall-1 (pIC50) ([1]; IL-2 stimulated pSTAT5 in Tall-1 T cells)	IC50 [1, 6] [nM]
CN(C)C/C=C/C(=O)N1CC[C@H](Oc2cc(-c3ccc(O)c(F)c3)cc3[nH]ncc23)C1 [Compound 1-4]	200 to 1000	0.1 to 1	A (a value of 3 or above)	> 100	–	–	–	–	–	–
C=CC(=O)N1CC[C@H](Oc2nc(-c3ccc(O)c(Cl)c3)nc3[nH]nc(C)c23)C1 [Compound 1-37]	200 to 1000	0.1 to 1	A (a value of 3 or above)	> 100	–	–	–	–	–	–
CN(C)C/C=C/C(=O)N1CC[C@H](Oc2nc(-c3ccc(O)cc3)cc3[nH]ncc23)C1 [Compound 1-7]	200 to 1000	0.1 to 1	B (a value of 2.3 to 3)	> 100	–	–	–	–	–	–
C=CC(=O)N1CC[C@H](Oc2cc(-c3cc(F)c(O)c(F)c3)cc3[nH]ncc23)C1 [Compound 1-14]	31.6 to 200	< 0.1	A (a value of 3 or above)	> 100	–	–	–	–	–	–
C=CC(=O)N1CCC[C@H](Oc2nc(-c3ccc(O)c(Cl)c3)nc3[nH]ncc23)C1 [Compound 8-12]	–	–	–	–	C (a pIC50 value between 6 and 6.7 (IC50 between 1 μM and 200 nM))	B (a pKi value between 9 and 10 (Ki between 1 nM and 0.1 nM))	A (a value of 3 or above)	E (a pKi value of 7 or below (Ki of 100 nM or above))	–	–
C=CC(=O)N1CC(COc2nc(-c3ccc(O)cc3)cc3[nH]ncc23)C1 [Compound 3-29]	–	–	A (a value of 3 or above)	–	–	B (a pKi value between 9 and 10 (Ki between 1 nM and 0.1 nM))	–	E (a pKi value of 7 or below (Ki of 100 nM or above))	A (a pIC50 value≥7.5 (IC50≤32 nM))	–
C=CC(=O)N1CC(OCc2cc(-c3ccc(O)cc3)nc3[nH]ncc23)C1 [Compound 16-4]	–	–	–	–	B (a pIC50 value between 6.7 (included) and 7.5 (IC50 between 200 nM and 32 nM))	B (a pKi value between 9 and 10 (Ki between 1 nM and 0.1 nM))	A (a value of 3 or above)	E (a pKi value of 7 or below (Ki of 100 nM or above))	–	–
C=CC(=O)N1CCC(Oc2nc(-c3ccc(O)c(F)c3)nc3[nH]ncc23)CC1 [Compound 6-23]	–	0.1 to 1	–	> 100	–	–	A (a value of 3 or above)	–	–	200 to 1000
CN1CCC[C@@H]1/C=C/C(=O)N1CC[C@H](Oc2cc(-c3ccc(O)cc3)cc3[nH]ncc23)C1 [Compound 15, (E)-1-((S)-3-((6-(4-hydroxyphenyl)-1H-indazol-4-yl)oxy)pyrrolidin-1-yl)-3-((R)-1-methylpyrrolidin-2-yl)prop-2-en-1-one]	200 to 1000	0.1 to 1	A (a value of 3 or above)	> 100	–	–	–	–	–	–
C=CC(=O)N1CC(F)(COc2cc(-c3ccc(O)cc3)cc3[nH]ncc23)C1 [Compound 3-6]	< 31.6	< 0.1	A (a value of 3 or above)	10 to 100	–	–	–	–	–	–
C=CC(=O)N1CC(Oc2cc(-c3ccc(O)cc3)cc3[nH]ncc23)(C(F)(F)F)C1 [Compound 5-26]	–	–	–	–	C (a pIC50 value between 6 and 6.7 (IC50 between 1 μM and 200 nM))	B (a pKi value between 9 and 10 (Ki between 1 nM and 0.1 nM))	B (a value of 2.3 to 3)	E (a pKi value of 7 or below (Ki of 100 nM or above))	–	–
C=CC(=O)N1CCC(Oc2cc(-c3ccc(O)cc3)cc3[nH]nnc23)C1 (centres unmarked) [Compound 17-2]	–	–	–	–	C (a pIC50 value between 6 and 6.7 (IC50 between 1 μM and 200 nM))	A (a pKi value≥10 (Ki≤0.1 nM))	A (a value of 3 or above)	E (a pKi value of 7 or below (Ki of 100 nM or above))	–	–
C=CC(=O)N1CC[C@H](Oc2cc(-c3ccc(O)cc3)cc3[nH]nc(C(F)(F)F)c23)C1 [Compound 1-43]	< 31.6	< 0.1	A (a value of 3 or above)	> 100	–	–	–	–	–	–
CN(C)C/C=C/C(=O)N1CC2(CC(Oc3nc(-c4ccc(O)cc4)cc4[nH]ncc34)C2)C1 [Compound 15-6]	–	–	–	–	C (a pIC50 value between 6 and 6.7 (IC50 between 1 μM and 200 nM))	A (a pKi value≥10 (Ki≤0.1 nM))	B (a value of 2.3 to 3)	D (a pKi value between 7 and 8 (Ki between 100 nM and 10 nM))	–	–
C=CC(=O)N1CC(COc2cc(-c3ccc(O)c(F)c3)cc3[nH]nc(C)c23)C1 [Compound 18-7]	–	0.1 to 1	–	10 to 100	–	–	C (a value of 1.8 to 2.3)	–	–	< 31.6
CN(C)C/C=C/C(=O)N1CCC(C)(Oc2cc(-c3ccc(O)cc3)cc3[nH]ncc23)CC1 [Compound 6-9]	–	–	–	–	–	–	A (a value of 3 or above)	–	–	31.6 to 200
